The values that follow come from publication PMC9487543 (Antimicrobial Agents and Chemotherapy, 2022).

Read-outs that look alike come from different tables or passages of the source. Marks after values point to notes of the source that are not given here.

Series [1] in a line: Plasma pharmacokinetics in hemodialysis-dependent subjects, On-dialysis vs Off-dialysis periods. The class given is in vivo, human. Particulars: for AUC(0-inf) / Cmax / AUCinf / CL / VZ / t1/2: single 2 h IV infusion 2 g cefepime + 0.5 g taniborbactam; for AUC(0-inf) / Cmax / AUCinf / CL / VZ: geometric mean (geometric CV %); for t1/2: mean (SD). As for the experimental part:
(§1) In addition to the groups enrolled by renal function to study the effect of renal impairment, a group of subjects with ESRD undergoing chronic intermittent hemodialysis were enrolled into a separate group (Group 5; “Dialysis”) to determine the amounts of drug removed by filtration. Hemodialysis used standard commercial dialyzers and membranes. […] A fixed sequence of dialysis timing with respect to dose was used, where the dose was administered prior to dialysis in the first treatment period (“On-dialysis”; Period 1) and administered following dialysis in the second treatment period (“Off-dialysis”; Period 2). […] For the Off-dialysis period, subjects had the SOI begin approximately 6 h after the start of dialysis, which was after the dialysis had been completed.
Additional blood samples, if not already collected by a defined time point, were collected at 1 h after the start of dialysis and again at the end of dialysis.
Human dipotassium ethylenediaminetetraacetic acid plasma samples were processed using protein precipitation prior to assay. Urine samples collected for pharmacokinetic analysis in the study were processed and assayed for only taniborbactam using a validated bioanalytical method. […] Acidified urine and dialysate samples were processed using solid-phase extraction prior to assay. […]
Estimated plasma pharmacokinetic parameters included the Cmax, time to Cmax (Tmax), AUC through the last measurable observed concentration (AUCt), AUCinf, t1/2, CL, and VZ. For taniborbactam, using the urine observations, the amount excreted unchanged in urine (Ae), fraction excreted unchanged in urine as the percentage of administered dose (Fe), renal clearance (CLR), and nonrenal clearance (CLNR) were calculated. The actual sample times were used to calculate the pharmacokinetic parameters. […] If a good estimate of λZ could not be determined for a concentration-time profile, then none of the pharmacokinetic parameters dependent on λZ were calculated.
(§2) For Dialysis subjects (Group 5), the effect of hemodialysis was examined by comparing differences within each subject (On-Dialysis versus Off-Dialysis). The CLd was calculated by taking the individual averaged arterial to venous concentration extraction ratio (CER), multiplying by the reported Qb, and correcting for hematocrit (hct). The hct was estimated as 0.47, an assumption based on the fact that all subjects in the group were male. The amounts of drug removed by hemodialysis (Adial) were calculated using the area under the excretion rate curves, where the rates were determined using the spot dialysis concentrations and estimated dialysate volumes over a 1 min period using the Qd. The fraction of drug removed during hemodialysis, or HER, was then determined by dividing Adial by dose and was expressed as a percentage.

The conditions of series [2]: cited from earlier work.
The conditions of series [3]: human, in vivo. From the text:
Subjects aged 18 to 80 years were enrolled into 1 of 4 groups based on the level of renal function (renal groups). […] Subjects in the Normal group were matched to subjects with renal impairment with regard to gender, age (±10 years), and weight (±10 kg). A single healthy subject may have been the match for more than one subject with renal impairment.
Human dipotassium ethylenediaminetetraacetic acid plasma samples were processed using protein precipitation prior to assay. Urine samples collected for pharmacokinetic analysis in the study were processed and assayed for only taniborbactam using a validated bioanalytical method. […]
(§3) Validated LC-MS/MS methods (LLOQ = 5.00 ng/mL) were used to quantitate the concentrations of taniborbactam in urine.
Estimated plasma pharmacokinetic parameters included the Cmax, time to Cmax (Tmax), AUC through the last measurable observed concentration (AUCt), AUCinf, t1/2, CL, and VZ. For taniborbactam, using the urine observations, the amount excreted unchanged in urine (Ae), fraction excreted unchanged in urine as the percentage of administered dose (Fe), renal clearance (CLR), and nonrenal clearance (CLNR) were calculated. […] If a good estimate of λZ could not be determined for a concentration-time profile, then none of the pharmacokinetic parameters dependent on λZ were calculated. […]

The nature of series [4]: Dialysis parameters (dialysis clearance, hemodialysis extraction ratio). The class given is in vivo, human. How it is done: as §1
Human dipotassium ethylenediaminetetraacetic acid plasma samples were processed using protein precipitation prior to assay. Urine samples collected for pharmacokinetic analysis in the study were processed and assayed for only taniborbactam using a validated bioanalytical method. […] Acidified urine and dialysate samples were processed using solid-phase extraction prior to assay.
as §3, §2

In series [5] the test system is Ambler Class A, C, and D serine-β-lactamases, and the Ambler class B metallo-β-lactamases. Particulars: including VIM and NDM; cited from earlier work.
Series [6] is described as follows: Urine pharmacokinetics (renal clearance) of taniborbactam by renal group. The class given is in vivo, human. Particulars: single 2 h IV infusion 2 g cefepime + 0.5 g taniborbactam, geometric mean (geometric CV %). How it is done:
Urine was collected to further assess taniborbactam pharmacokinetics. Subjects were instructed to empty their bladders completely before study drug administration and just before the end of each collection interval. Urine from each timed interval was collected in a separate container. The exact start dates, stop dates, times of urine collection, and the weight and volume of each collection were recorded. Urine samples were collected within intervals of 0 to 6 h, 6 to 12 h, 12 to 24 h, 24 to 48 h, 48 to 72 h, and 72 to 96 h following the SOI. […] Urine samples were not collected from anuric subjects.
[…]. […] […].

Series [7] in a line: Safety and tolerability in subjects with various degrees of renal impairment. Particulars: human, in vivo. How it is done: Safety was assessed based on the occurrence of adverse events and on the evaluation of laboratory tests (chemistry, hematology, urinalysis, and coagulation), physical examinations, vital signs, and 12-lead ECGs. Safety was followed through 7 days post-dose.

Where [8] appears, read: Dialysis group, Off-dialysis (n = 7).
The mark [9] stands for this setting: Dialysis group, On-dialysis (n = 6).

As a reminder, the AUC(0-inf) is total exposure, with the tail of the curve extrapolated. Regarding `CO/N=C(\C(=O)N[C@@H]1C(=O)N2C(C(=O)[O-])=C(C[N+]3(C)CCCC3)CS[C@H]12)c1csc(N)n1` [cefepime, Cefepime, reference compound], the AUC(0-inf) in series [1] (male, human, plasma, iv, Dialysis group, Off-dialysis (n = 7)) was 4550 µg·h/mL; in series [1] (male, human, plasma, iv, Dialysis group, On-dialysis (n = 6)), 1600 µg·h/mL. Also, the Cmax is 165 µg/mL in series [1] (male, human, plasma, iv, Dialysis group, Off-dialysis (n = 7), read-out: Cmax) and 105 µg/mL in series [1] (male, human, plasma, iv, Dialysis group, On-dialysis (n = 6), read-out: Cmax). Also, in series [2] (3 h hemodialysis session), the “amount removed during a hemodialysis session” value is reported as “approximately 68%”. Further, the “dose excreted unchanged in urine” value in series [2] (following administration of 0.25 to 2 g cefepime) is listed as “at least 80%”.

For the compound `NCCN[C@H]1CC[C@H](CC(=O)N[C@H]2Cc3cccc(C(=O)O)c3OB2O)CC1` [taniborbactam, Taniborbactam], the “VZ least-square geometric mean ratio (90% CI)” value in series [3] is on record as 149.94%. Besides, the “hemodialysis extraction ratio (HER), fraction of dose removed during hemodialysis, mean (SD)” value in series [4] (On-dialysis period, 4 h hemodialysis session) was 49.7%. Moreover, the “dialysis clearance (CLd), mean (SD)” value in series [4] (On-dialysis period, 4 h hemodialysis, Qb 350 to 450 mL/min) was 102 (5.3) mL/min. In addition, the dialyzability entry in series [4] (hemodialysis) was “dialyzable”. Further, in series [1] (setting [8]), the AUCinf is given as 2003 (32.1) h·μg/mL, the CL is reported as 0.245 (29.8) L/h, the Cmax is listed as 37.7 (73.7) μg/mL and the VZ is 23.7 (13.4) L. Besides, the t1/2 in series [1] (setting [8]) is 70.8 (22.3) h. Also, in series [1] (setting [9]), the AUCinf is 851 (23.0) h·μg/mL, the CL is listed as 0.579 (23.0) L/h, the Cmax was 23.4 (9.5) μg/mL and the VZ is recorded as 68.1 (15.1) L. The t1/2 in series [1] (setting [9]) is reported as 83.7 (21.5) h. Further, the “decrease in geometric mean AUC following hemodialysis” value in series [1] (Dialysis group, On-dialysis vs Off-dialysis) was found to be 58%. Besides, the “AUCinf least-squares GMR (90% CI)” value in series [1] (On-dialysis/Off-dialysis) is given as 39.29%. Also, the β-lactamase inhibition result in series [5] is on record as “potent competitive inhibition”. In series [2] (at steady-state), the “dose recovered in urine as unchanged parent compound” value is given as “approximately 89%”. The CLR in series [6] (Mild renal impairment (n = 6)) is on record as 4.23 (22.7) L/h. Also, the CLR in series [6] (Moderate renal impairment (n = 6)) is 1.59 (21.0) L/h. Also, in series [6] (Normal renal function (n = 7)), the CLR is recorded as 4.37 (17.8)^d L/h. In addition, the CLR in series [6] (Severe renal impairment (n = 6)) is listed as 0.76 (120.3) L/h.

For cefepime-taniborbactam, in series [7], the “adverse events considered related to treatment” value was 7 of 8, the “adverse events mild in severity” value is given as 7 of 8, the deaths entry is “no deaths” and the “number of treatment emergent adverse events” value was 8. Moreover, in series [7], the serious adverse events entry is recorded as “No subjects experienced serious adverse events” and the “subjects who experienced treatment emergent adverse events” value was 7 subjects.
